Experimental data as given in patent publication US12551533B2, “Intranasal neuropeptides for use in stress-related impairments” (New York Medical College, priority 2019, dated 2026).
“Also recorded” adds a separate entry of the source.

Tests used:
[1] = system: Single Prolonged Stress (SPS) model of PTSD; assay: Elevated plus maze (EPM) one week after SPS stressors, early intervention with intranasal peptide; assay type: in vivo, rat
Method: (§1) After 7 days, the animals were tested on the elevated plus maze (EPM) for 5 min for various features of anxiety and locomotion and 5 days later for depressive/despair symptoms on the Forced Swim Tet (FST).
Based on the performance on the EPM the anxiety index was calculated for each rat. […] (FIG. 2B)
(§2) After a two week accommodation period rats were exposed to SPS stressors. […] Control unstressed rats were handled briefly and weighed on the same day. They were left undisturbed for a week and then tested for anxiety on Elevated Plus Maze (EPM) together with unstressed control rats. Five days later all the animals were tested for depresssive/dispair behavior by the Forced Swim Test (FST).
Based on the performance on the EPM the anxiety index was calculated for each rat. The anxiety index=1−[(time spent in open arm/total time on the maze)/2+(number of entries to the open arms/total exploration on the maze)/2] and is shown in FIG. 2. […] Each point represents the values for an individual animal.

[2] = system: Single Prolonged Stress (SPS) model of PTSD; assay: Forced Swim Test (FST) 12 days after SPS stressors, early intervention with intranasal peptide; assay type: in vivo; details: intranasal 150 μg/rat immediately after SPS, vs SPS/V
Method: as §1
The immobility time on the FST, which reflects depressive-lie behavior, despair or altered coping style was determined.
as §2

[3] = system: Single Prolonged Stress (SPS) model of PTSD; assay: Elevated plus maze (EPM) two weeks after SPS stressors, early intervention with intranasal peptide; assay type: in vivo; details: intranasal NPY 200 μg or D-H 150 μg per rat immediately after SPS
Method: (§3) FIG. 6 depicts a diagram of the experimental procedure (FIGS. 7-8). […] After two weeks the animals were tested on the elevated plus maze (EPM) for 5 min and 7 days later for social interaction (SI).
(§4) The experimental design was as depicted in FIG. 6. […] After two weeks they were tested on the elevated plus maze (EPM) for 5 min and 7 days later for social interaction (SI).

[4] = system: Single Prolonged Stress (SPS) model of PTSD; assay: Social interaction test with juvenile rat, three weeks after SPS stressors; assay type: in vivo; details: intranasal NPY 200 μg or D-H 150 μg per rat immediately after SPS; SI 7 days after the EPM
Method: as §3, §4

[5] = system: Single Prolonged Stress (SPS) model of PTSD; assay: EPM after intranasal treatment given 2 weeks after SPS (reversal of manifested symptoms); assay type: in vivo; details: intranasal 300 μg/rat given 2 weeks after SPS; EPM four days later; vs SPS/V
Text: FIG. 9A. Scheme of the experiment; FIG. 9B. Duration in the closed arms, an indication of anxiety; FIG. 9C. Anxiety index. *p<0.05, ***p<0.001.

[6] = system: SPS elicited development of depressive symptoms; details: intranasal infusion after traumatic stress; cited from earlier work
[7] = intranasal 150 μg/rat immediately after SPS, one week after SPS
[8] = intranasal 150 μg/rat immediately after SPS, one week after SPS, listed as [D-^26His]NPY

Question: With [D^26-His]NPY [[D^26His]NPY] as the substance, how does the “distance travelled on the EPM (locomotion)” value [1, 7] read?
Answer: The value was “did not reduce the distance traveled”.

Question: And the “duration of head dips on the EPM” value [1, 7]?
Answer: The value was “prevent the SPS triggered reduction; also recorded: more effective than NPY”.

Question: And the “frequency of head dips on the EPM” value [1, 7]?
Answer: Its value is “prevent the SPS triggered reduction; also recorded: more effective than NPY”.

Question: And the “duration of head dips on the EPM” value [1, 8]?
Answer: The value was “recovered”.

Question: And the “frequency of head dips on the EPM” value [1, 8]?
Answer: The value was “recovered”.

Question: And the “immobility time in the Forced Swim Test” value ([2]; listed as D-H)?
Answer: The value was “superior to NPY”.

Question: And the “immobility time in the Forced Swim Test” value ([2]; listed as DH)?
Answer: The value was “reduced; also recorded: significantly more effective than NPY”.

Question: What about the “entries and duration in the open arms of the EPM” value [3] of the same substance?
Answer: Its value is “as effective as NPY”.

Question: And the “interaction time on the social interaction test” value [4]?
Answer: The value was “prevented”.

Question: What about the “number of approaches on the social interaction test” value [4] of the same substance?
Answer: The value was “prevented”.

Question: And the “duration in the closed arms of the EPM” value [5]?
Answer: The value was “less time in the closed arms”.

Question: What does the source list for [Leu^31Pro^34]NPY [reference compound]?
Answer: SPS elicited anxiety (anxiety index on the EPM, FIG. 2B) ([1]; intranasal, at a concentration which prevents SPS elicited depressive symptoms, seven days after SPS): did not reduce the SPS elicited anxiety; also recorded: ineffective; development of depressive-like symptoms after traumatic stress [6]: prevented development of depressive-like symptoms
